Laboratory results reported in patent US20240208992A1, “MACROCYCLES AS CFTR MODULATORS” (Idorsia Pharmaceuticals Ltd, priority 2021, published 2024).

Target: human F508del-CFTR (Homo sapiens, UniProt P13569, DEL508-508)
Assay: F508del-CFTR cell surface expression (corrector activity), DiscoveRx ß-galactosidase complementation chemiluminescence assay in recombinant U2OS cell line;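 further: U2OS cells co-expressing ProLink-tagged F508del-CFTR and a membrane-anchored enzyme acceptor, where more surface CFTR restores β-galactosidase activity measured by chemiluminescence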
Details: U2OS cell line, 16h compound incubation; for EC50: EC50, F508del-CFTR cell surface expression, geomean values; for Emax: U2OS, in relation to the Emax of the corrector lumacaftor (=100%), arithmetic mean values

Sequence of human F508del-CFTR (P13569 with tags, fused parts or gaps DEL508-508): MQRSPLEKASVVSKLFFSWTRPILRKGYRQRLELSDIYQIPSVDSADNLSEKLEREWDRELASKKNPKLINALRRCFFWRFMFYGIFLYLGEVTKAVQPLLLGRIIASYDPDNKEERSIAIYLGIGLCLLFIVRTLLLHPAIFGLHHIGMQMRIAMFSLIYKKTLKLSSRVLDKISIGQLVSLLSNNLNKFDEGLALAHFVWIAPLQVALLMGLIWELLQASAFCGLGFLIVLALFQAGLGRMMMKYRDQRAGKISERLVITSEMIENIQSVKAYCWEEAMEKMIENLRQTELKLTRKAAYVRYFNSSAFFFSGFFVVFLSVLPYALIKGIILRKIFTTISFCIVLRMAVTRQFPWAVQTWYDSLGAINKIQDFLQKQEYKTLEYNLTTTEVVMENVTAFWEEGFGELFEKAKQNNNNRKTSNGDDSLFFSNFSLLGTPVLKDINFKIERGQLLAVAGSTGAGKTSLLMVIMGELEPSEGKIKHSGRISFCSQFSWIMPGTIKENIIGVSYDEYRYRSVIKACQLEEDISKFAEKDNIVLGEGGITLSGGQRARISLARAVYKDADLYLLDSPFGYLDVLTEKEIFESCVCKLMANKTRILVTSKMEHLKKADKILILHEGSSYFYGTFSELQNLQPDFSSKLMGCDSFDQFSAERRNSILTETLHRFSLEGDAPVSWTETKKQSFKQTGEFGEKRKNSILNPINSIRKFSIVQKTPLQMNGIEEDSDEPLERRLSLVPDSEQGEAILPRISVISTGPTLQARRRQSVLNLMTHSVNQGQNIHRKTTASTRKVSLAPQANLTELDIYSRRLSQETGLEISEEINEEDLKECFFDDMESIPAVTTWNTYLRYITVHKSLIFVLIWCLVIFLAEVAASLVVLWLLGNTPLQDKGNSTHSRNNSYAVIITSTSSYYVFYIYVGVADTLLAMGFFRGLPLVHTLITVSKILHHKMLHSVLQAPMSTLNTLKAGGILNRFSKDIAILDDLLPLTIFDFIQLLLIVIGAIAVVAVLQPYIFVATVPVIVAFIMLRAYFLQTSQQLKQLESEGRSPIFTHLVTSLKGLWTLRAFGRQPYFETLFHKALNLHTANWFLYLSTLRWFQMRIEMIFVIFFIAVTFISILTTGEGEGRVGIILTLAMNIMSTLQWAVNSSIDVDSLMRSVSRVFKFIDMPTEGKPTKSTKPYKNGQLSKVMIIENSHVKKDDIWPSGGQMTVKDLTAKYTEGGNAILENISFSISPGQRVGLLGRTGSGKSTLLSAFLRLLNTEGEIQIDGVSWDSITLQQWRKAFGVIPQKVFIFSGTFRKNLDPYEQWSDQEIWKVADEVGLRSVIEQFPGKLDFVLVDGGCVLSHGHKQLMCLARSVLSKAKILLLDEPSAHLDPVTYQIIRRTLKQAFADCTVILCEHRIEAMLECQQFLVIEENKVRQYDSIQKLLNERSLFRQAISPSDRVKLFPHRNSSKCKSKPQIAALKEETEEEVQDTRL

Structure (SMILES) | EC50 [nM] | Emax [%]
CC(C)C[C@H]1C(=O)N2CCOC[C@@H]2C(=O)N[C@H](Cc2ccccc2)COc2ccc3ccccc3c2C(=O)N[C@H](C(=O)NCCc2ccc3c(c2)OCCO3)CC(=O)N1C [Example 39, (4aR,7R,18S,22S)-7-benzyl-N-(2-(2,3-dihydrobenzo[b][1,4]dioxin-6-yl)ethyl)-22-isobutyl-21-methyl-5,16,20,23-tetraoxo-1,2,4,4a,5,6,7,8,16,17,18,19,20,21,22,23-hexadecahydronaphtho[1,2-p][1,4]oxazino[3,4-f][1]oxa[4,7,10,14]tetraazacycloheptadecine-18-carboxamide] | 415 | 450
CC(C)C[C@H]1C(=O)N2CCOC[C@@H]2C(=O)N[C@H](Cc2ccccc2)COc2ccc3ccccc3c2C(=O)N[C@H](C(=O)NCCc2ccc(C#N)cc2)CC(=O)N1C [Example 40, (4aR,7R,18S,22S)-7-benzyl-N-(4-cyanophenethyl)-22-isobutyl-21-methyl-5,16,20,23-tetraoxo-1,2,4,4a,5,6,7,8,16,17,18,19,20,21,22,23-hexadecahydronaphtho[1,2-p][1,4]oxazino[3,4-f][1]oxa[4,7,10,14]tetraazacycloheptadecine-18-carboxamide] | 897 | 147
Cc1noc(C)c1CCNC(=O)[C@@H]1CC(=O)N(C)[C@@H](CC(C)C)C(=O)N2CCOC[C@@H]2C(=O)N[C@H](Cc2ccccc2)COc2ccc3ccccc3c2C(=O)N1 [Example 43, (4aR,7R,18S,22S)-7-benzyl-N-(2-(3,5-dimethylisoxazol-4-yl)ethyl)-22-isobutyl-21-methyl-5,16,20,23-tetraoxo-1,2,4,4a,5,6,7,8,16,17,18,19,20,21,22,23-hexadecahydronaphtho[1,2-p][1,4]oxazino[3,4-f][1]oxa[4,7,10,14]tetraazacycloheptadecine-18-carboxamide] | 862 | 137
CC(C)C[C@H]1C(=O)N2CCOC[C@@H]2C(=O)N[C@H](Cc2ccccc2)COc2ccc3ccccc3c2C(=O)N[C@H](C(=O)NCCc2noc(C3CC3)n2)CC(=O)N1C [Example 45, (4aR,7R,18S,22S)-7-benzyl-N-(2-(5-cyclopropyl-1,2,4-oxadiazol-3-yl)ethyl)-22-isobutyl-21-methyl-5,16,20,23-tetraoxo-1,2,4,4a,5,6,7,8,16,17,18,19,20,21,22,23-hexadecahydronaphtho[1,2-p][1,4]oxazino[3,4-f][1]oxa[4,7,10,14]tetraazacycloheptadecine-18-carboxamide] | 682 | 324
CC(C)C[C@H]1C(=O)N2CCOC[C@@H]2C(=O)N[C@H](Cc2ccccc2)COc2cnc3ccccc3c2C(=O)N[C@H](C(=O)NCCc2csc(C(C)C)n2)CC(=O)N1C [Example 46, (9S,13S,19aR,22R)-22-benzyl-13-isobutyl-N-(2-(2-isopropylthiazol-4-yl)ethyl)-12-methyl-7,11,14,20-tetraoxo-7,8,9,10,11,12,13,14,16,17,19,19a,20,21,22,23-hexadecahydro-[1,4]oxazino[3′,4′:6,7][1]oxa[4,7,10,14]tetraazacycloheptadecino[17,16-c]quinoline-9-carboxamide] | 679 | 137
CCc1ccc(CCNC(=O)[C@@H]2CC(=O)N(C)[C@@H](CC(C)C)C(=O)N3CCOC[C@@H]3C(=O)N[C@H](Cc3ccccc3)COc3cnc4ccccc4c3C(=O)N2)cc1 [Example 47, (9S,13S,19aR,22R)-22-benzyl-N-(4-ethylphenethyl)-13-isobutyl-12-methyl-7,11,14,20-tetraoxo-7,8,9,10,11,12,13,14,16,17,19,19a,20,21,22,23-hexadecahydro-[1,4]oxazino[3′,4′:6,7][1]oxa[4,7,10,14]tetraazacycloheptadecino[17,16-c]quinoline-9-carboxamide] | 213 | 247
CC(C)C[C@H]1C(=O)N2CCOC[C@@H]2C(=O)N[C@H](Cc2ccccc2)COc2cnc3ccccc3c2C(=O)N[C@H](C(=O)NCCc2ccc(C(C)(C)C)cc2)CC(=O)N1C [Example 48, (9S,13S,19aR,22R)-22-benzyl-N-(4-(tert-butyl)phenethyl)-13-isobutyl-12-methyl-7,11,14,20-tetraoxo-7,8,9,10,11,12,13,14,16,17,19,19a,20,21,22,23-hexadecahydro-[1,4]oxazino[3′,4′:6,7][1]oxa[4,7,10,14]tetraazacycloheptadecino[17,16-c]quinoline-9-carboxamide] | 409 | 151

Next, values leading:

EC50 [nM] | Emax [%] | Structure (SMILES)
255 | 141 | COc1cccc(OCCNC(=O)[C@@H]2CC(=O)N(C)[C@@H](CC(C)C)C(=O)N3CCOC[C@@H]3C(=O)N[C@H](Cc3ccccc3)COc3ccc4ccccc4c3C(=O)N2)c1 [Example 33, (4aR,7R,18S,22S)-7-benzyl-22-isobutyl-N-(2-(3-methoxyphenoxy)ethyl)-21-methyl-5,16,20,23-tetraoxo-1,2,4,4a,5,6,7,8,16,17,18,19,20,21,22,23-hexadecahydronaphtho[1,2-p][1,4]oxazino[3,4-f][1]oxa[4,7,10,14]tetraazacycloheptadecine-18-carboxamide]
260 | 121 | COc1ccc(OCCNC(=O)[C@@H]2CC(=O)N(C)[C@@H](CC(C)C)C(=O)N3CCOC[C@@H]3C(=O)N[C@H](Cc3ccccc3)COc3ccc4ccccc4c3C(=O)N2)cc1 [Example 34, (4aR,7R,18S,22S)-7-benzyl-22-isobutyl-N-(2-(4-methoxyphenoxy)ethyl)-21-methyl-5,16,20,23-tetraoxo-1,2,4,4a,5,6,7,8,16,17,18,19,20,21,22,23-hexadecahydronaphtho[1,2-p][1,4]oxazino[3,4-f][1]oxa[4,7,10,14]tetraazacycloheptadecine-18-carboxamide]
262 | 109 | COc1cc2c(cc1CCNC(=O)[C@@H]1CC(=O)N(C)[C@@H](CC(C)C)C(=O)N3CCOC[C@@H]3C(=O)N[C@H](Cc3ccccc3)COc3ccc4ccccc4c3C(=O)N1)OCCO2 [Example 35, (4aR,7R,18S,22S)-7-benzyl-22-isobutyl-N-(2-(7-methoxy-2,3-dihydrobenzo[b][1,4]dioxin-6-yl)ethyl)-21-methyl-5,16,20,23-tetraoxo-1,2,4,4a,5,6,7,8,16,17,18,19,20,21,22,23-hexadecahydronaphtho[1,2-p][1,4]oxazino[3,4-f][1]oxa[4,7,10,14]tetraazacycloheptadecine-18-carboxamide]
306 | 120 | Cc1c(CCNC(=O)[C@@H]2CC(=O)N(C)[C@@H](CC(C)C)C(=O)N3CCOC[C@@H]3C(=O)N[C@H](Cc3ccccc3)COc3ccc4ccccc4c3C(=O)N2)c(Cl)cc2c1OCCO2 [Example 36, (4aR,7R,18S,22S)-7-benzyl-N-(2-(7-chloro-5-methyl-2,3-dihydrobenzo[b][1,4]dioxin-6-yl)ethyl)-22-isobutyl-21-methyl-5,16,20,23-tetraoxo-1,2,4,4a,5,6,7,8,16,17,18,19,20,21,22,23-hexadecahydronaphtho[1,2-p][1,4]oxazino[3,4-f][1]oxa[4,7,10,14]tetraazacycloheptadecine-18-carboxamide]
122 | 205 | CC(C)C[C@H]1C(=O)N2CCOC[C@@H]2C(=O)N[C@H](Cc2ccccc2)COc2ccc3ccccc3c2C(=O)N[C@H](C(=O)NCCc2cc3c(cc2Cl)OCCO3)CC(=O)N1C [Example 37, (4aR,7R,18S,22S)-7-benzyl-N-(2-(7-chloro-2,3-dihydrobenzo[b][1,4]dioxin-6-yl)ethyl)-22-isobutyl-21-methyl-5,16,20,23-tetraoxo-1,2,4,4a,5,6,7,8,16,17,18,19,20,21,22,23-hexadecahydronaphtho[1,2-p][1,4]oxazino[3,4-f][1]oxa[4,7,10,14]tetraazacycloheptadecine-18-carboxamide]
299 | 191 | CC(C)C[C@H]1C(=O)N2CCOC[C@@H]2C(=O)N[C@H](Cc2ccccc2)COc2ccc3ccccc3c2C(=O)N[C@H](C(=O)NCCc2noc3ccccc23)CC(=O)N1C [Example 38, (4aR,7R,18S,22S)-N-(2-(benzo[d]isoxazol-3-yl)ethyl)-7-benzyl-22-isobutyl-21-methyl-5,16,20,23-tetraoxo-1,2,4,4a,5,6,7,8,16,17,18,19,20,21,22,23-hexadecahydronaphtho[1,2-p][1,4]oxazino[3,4-f][1]oxa[4,7,10,14]tetraazacycloheptadecine-18-carboxamide]
280 | 215 | CC(C)C[C@H]1C(=O)N2CCOC[C@@H]2C(=O)N[C@H](Cc2ccccc2)COc2ccc3ccccc3c2C(=O)N[C@H](C(=O)NCCc2cccc(-n3nccn3)c2)CC(=O)N1C [Example 41, (4aR,7R,18S,22S)-N-(3-(2H-1,2,3-triazol-2-yl)phenethyl)-7-benzyl-22-isobutyl-21-methyl-5,16,20,23-tetraoxo-1,2,4,4a,5,6,7,8,16,17,18,19,20,21,22,23-hexadecahydronaphtho[1,2-p][1,4]oxazino[3,4-f][1]oxa[4,7,10,14]tetraazacycloheptadecine-18-carboxamide]
353 | 419 | CC(C)C[C@H]1C(=O)N2CCOC[C@@H]2C(=O)N[C@H](Cc2ccccc2)COc2ccc3ccccc3c2C(=O)N[C@H](C(=O)NCCc2ccc3c(c2)OCC3)CC(=O)N1C [Example 42, (4aR,7R,18S,22S)-7-benzyl-N-(2-(2,3-dihydrobenzofuran-6-yl)ethyl)-22-isobutyl-21-methyl-5,16,20,23-tetraoxo-1,2,4,4a,5,6,7,8,16,17,18,19,20,21,22,23-hexadecahydronaphtho[1,2-p][1,4]oxazino[3,4-f][1]oxa[4,7,10,14]tetraazacycloheptadecine-18-carboxamide]
571 | 247 | CCc1nc(CCNC(=O)[C@@H]2CC(=O)N(C)[C@@H](CC(C)C)C(=O)N3CCOC[C@@H]3C(=O)N[C@H](Cc3ccccc3)COc3ccc4ccccc4c3C(=O)N2)no1 [Example 44, (4aR,7R,18S,22S)-7-benzyl-N-(2-(5-ethyl-1,2,4-oxadiazol-3-yl)ethyl)-22-isobutyl-21-methyl-5,16,20,23-tetraoxo-1,2,4,4a,5,6,7,8,16,17,18,19,20,21,22,23-hexadecahydronaphtho[1,2-p][1,4]oxazino[3,4-f][1]oxa[4,7,10,14]tetraazacycloheptadecine-18-carboxamide]
